These results are taken from patent US8022091B2, “Triazole derivative” (Taisho Pharmaceutical Co., Ltd., priority 2006, dated 2011).

The target in data set [1] is T1, human Edg-1 (S1P1) (Homo sapiens, UniProt P21453).
T1 construct: expressed in transfected cells; host or cells: HEK-293
Nature of the data set: S1P1 binding assay: inhibition of [33P]-S1P binding to membrane fraction of HEK-293 cells transferred with the human Edg-1 (S1P1) gene. As to conditions: for IC50: [33P]-S1P 0.1 nM, human Edg-1 (S1P1) HEK-293 membrane fraction, 1 h at 30° C., read-out: IC50 (concentration at which binding in the absence of the test compound was inhibited by 50%). In a few lines: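 With 0.1 nM [33P]-S1P and compound (10^−5M single point, or a concentration range for IC50) in 0.1% DMSO, membrane fractions from human Edg-1-expressing HEK-293 cells were treated for one hour at 30° C in 20 mM Tris-HCl pH 7.4 with NaF, deoxypyridoxine and BSA. Bound label was measured after filtration, with untransfected-cell background subtracted.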

Setting [2] is: test compound 10 μM, inhibition of [33P]-S1P binding, membrane fraction.
Setting [3] is: test compound at 10 μM, inhibition of [33P]-S1P binding to the membrane fraction of HEK-293 cells expressing human Edg-1 (S1P1).

T1 sequence (P21453 whole entry): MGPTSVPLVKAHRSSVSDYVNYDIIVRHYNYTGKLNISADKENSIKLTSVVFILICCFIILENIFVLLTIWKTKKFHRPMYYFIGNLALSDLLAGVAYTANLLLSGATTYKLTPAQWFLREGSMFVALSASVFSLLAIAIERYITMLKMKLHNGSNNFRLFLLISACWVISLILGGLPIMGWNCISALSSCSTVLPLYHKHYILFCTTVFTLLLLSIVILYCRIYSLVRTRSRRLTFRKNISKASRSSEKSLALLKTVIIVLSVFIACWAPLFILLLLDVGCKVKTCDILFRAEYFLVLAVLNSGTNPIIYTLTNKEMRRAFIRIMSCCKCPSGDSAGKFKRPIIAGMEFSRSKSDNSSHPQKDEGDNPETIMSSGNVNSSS

As to `CCn1c(Oc2cccc(N3CCN(C)CC3)c2)nnc1[C@@H](C)NS(=O)(=O)c1ccc2c(S(C)(=O)=O)cccc2c1` [Compound 693], the melting point is 158 to 161 °C. For the same molecule, the inhibition at 10 µM in data set [1] (setting [2]) is 97.7%.

As to `CCn1c(Oc2cc(Cl)cc(Cl)c2)nnc1[C@@H](C)NS(=O)(=O)c1ccc(Cl)c(Cl)c1` [Compound 30], the melting point fell in the range of 212 to 216 °C. Further, the inhibition at 10 µM in data set [1] (setting [3]) stood at 100%.

`CCn1c(Oc2cc(C)nc(C)c2)nnc1[C@@H](C)NS(=O)(=O)c1ccc(Cl)c(Cl)c1` [Compound 80]: the melting point lay within 164 to 165 °C. Further, the inhibition at 10 µM in data set [1] (setting [3]) came out at 87.6%.

In turn, `CCn1c(Oc2ccc(F)cc2)nnc1[C@@H](C)NS(=O)(=O)c1ccc(Br)c(C)c1` [Compound 110] had a melting point of 187.5 to 188.5 °C. Besides, in data set [1] (setting [3]), the inhibition at 10 µM stood at 104%.

In turn, `CCn1c(Oc2cccc(C(C)C)c2)nnc1[C@@H](C)NS(=O)(=O)c1ccc(Cl)c(Cl)c1` [Compound 40] had a melting point of 155.5 to 156.5 °C. Moreover, the IC50 in data set [1] was at most 10 nM. For the same molecule, in data set [1] (setting [3]), the inhibition at 10 µM came out at 106%.

On to `CCn1c(Oc2ccc3ccncc3c2)nnc1[C@@H](C)NS(=O)(=O)c1ccc(Cl)c(Cl)c1` [Compound 54], for which the melting point lay in the range of 192 to 193 °C. For the same molecule, the inhibition at 10 µM in data set [1] (setting [3]) was 104%.

With `CCn1c(Oc2ccc(Cl)c(C)c2)nnc1[C@@H](C)NS(=O)(=O)c1ccc(Cl)c(Cl)c1` [Compound 26], the melting point was in the range of 159 to 164 °C. Further, the IC50 in data set [1] is at most 35 nM. For the same molecule, the inhibition at 10 µM in data set [1] (setting [3]) came out at 97.9%.

`CCn1c(Oc2cccc(N3CCN(C)CC3)c2)nnc1[C@@H](C)NS(=O)(=O)c1ccc(F)c(Cl)c1` [Compound 109] came in with a melting point of 152 to 153 °C. The IC50 in data set [1] was at most 35 nM. The inhibition at 10 µM in data set [1] (setting [3]) is 104%.

`CCn1c(Oc2cccc(N3CCC(O)CC3)c2)nnc1[C@@H](C)NS(=O)(=O)c1ccc(Cl)c(Cl)c1` [Compound 93, 3,4-Dichloro-N-((R)-1-[4-ethyl-5-[3-(4-hydroxy-piperidin-1-yl)-phenoxy]-4H-[1,2,4]triazol-3-yl]-ethyl)-benzenesulfonamide] had a melting point of 167.5 to 169.5 °C. The IC50 in data set [1] is at most 10 nM. The inhibition at 10 µM in data set [1] (setting [3]) worked out at 99.9%.

As to `C[C@@H](NS(=O)(=O)c1ccc(Cl)c(Cl)c1)c1nnc(Oc2ccc3cc[nH]c3c2)n1C1CC1` [Compound 125], the melting point lay in the range of 253.5 to 254.5 °C. For the same molecule, in data set [1], the IC50 is at most 35 nM. Moreover, in data set [1] (setting [3]), the inhibition at 10 µM turned out to be 94.3%.

With `CCn1c(Oc2cccc(N3CCN(C)CC3)c2)nnc1[C@@H](C)NS(=O)(=O)c1ccc2c(Cl)cccc2c1` [Compound 120], the melting point lay in the range of 211.5 to 216.5 °C. Moreover, the IC50 in data set [1] amounted to 1.7 nM. The inhibition at 10 µM in data set [1] (setting [3]) is 93%.

Regarding `CCn1c(Oc2ccc3cc[nH]c3c2)nnc1[C@@H](C)NS(=O)(=O)c1ccc(Cl)c(Cl)c1` [Compound 64], the melting point fell in the range of 223 to 224 °C. In addition, in data set [1], the IC50 was at most 35 nM. In data set [1] (setting [3]), the inhibition at 10 µM is 101%.

Consider `CCn1c(Oc2ccccn2)nnc1[C@@H](C)NS(=O)(=O)c1ccc(Cl)c(Cl)c1` [Compound 53], for which the melting point was in the range of 172 to 173 °C. Moreover, the inhibition at 10 µM in data set [1] (setting [3]) stood at 86.8%.

In the case of `CCn1c(Oc2cccc(-n3cccc3)c2)nnc1[C@@H](C)NS(=O)(=O)c1ccc(Cl)c(Cl)c1` [Compound 86, 3,4-Dichloro-N-[(R)-1-[4-ethyl-5-(3-pyrrol-1-phenoxy)-4H-[1,2,4]triazol-3-yl]-ethyl]-benzenesulfonamide], the melting point fell in the range of 176 to 177 °C. For the same molecule, in data set [1] (setting [3]), the inhibition at 10 µM was 107%.

On to `CCn1c(Oc2cccc(NC(=O)N3CCOCC3)c2)nnc1[C@@H](C)NS(=O)(=O)c1ccc(Cl)c(Cl)c1` [Compound 98], for which the melting point lay within 143 to 144 °C. Moreover, the inhibition at 10 µM in data set [1] (setting [3]) came out at 100%.

In turn, `CCn1c(Oc2ccc3cc[nH]c3c2)nnc1[C@@H](C)NS(=O)(=O)c1cc(C)c(Cl)cc1Cl` [Compound 131] yielded a melting point of 102 to 110.5 °C. Moreover, the IC50 in data set [1] is at most 35 nM. For the same molecule, the inhibition at 10 µM in data set [1] (setting [3]) came to 97.3%.

`CCn1c(Oc2cccc(OC)c2)nnc1[C@@H](C)NS(=O)(=O)c1ccc(Cl)c(Cl)c1` [Compound 69] yielded a melting point of 119 to 120.5 °C. The IC50 in data set [1] was at most 35 nM. For the same molecule, the inhibition at 10 µM in data set [1] (setting [3]) is 103%.

Take `CCn1c(Oc2ccc(OCCN(C)C)cc2)nnc1[C@@H](C)NS(=O)(=O)c1ccc(Cl)c(Cl)c1` [Compound 35]: the melting point was in the range of 156 to 159 °C. The IC50 in data set [1] was at most 35 nM. The inhibition at 10 µM in data set [1] (setting [3]) came to 100%.

Consider `CCn1c(Oc2cccc(N3CCN(C)CC3)c2)nnc1[C@@H](C)NS(=O)(=O)c1ccc2cc(Cl)ccc2c1` [Compound 664], for which the melting point was in the range of 218 to 221.5 °C. Also, in data set [1] (setting [2]), the inhibition at 10 µM was determined as 85.4%.

As to `CCn1c(Oc2ccc(N3CCCC3)cc2)nnc1[C@@H](C)NS(=O)(=O)c1ccc(Cl)c(Cl)c1` [Compound 49], the melting point lay within 198 to 199 °C. Moreover, the IC50 in data set [1] was found to be 6 nM. Moreover, in data set [1] (setting [3]), the inhibition at 10 µM came to 102%.

`CCn1c(Oc2cccc(NC(N)=O)c2)nnc1[C@@H](C)NS(=O)(=O)c1ccc(Cl)c(Cl)c1` [Compound 91, 3,4-Dichloro-N-[(R)-1-[4-ethyl-5-(3-ureido-phenoxy)-4H-[1,2,4]triazol-3-yl]-ethyl]-benzenesulfonamide] came in with a melting point of 137 to 138 °C. The inhibition at 10 µM in data set [1] (setting [3]) was found to be 90.6%.

`CCn1c(Oc2ccc3ncccc3c2)nnc1[C@@H](C)NS(=O)(=O)c1ccc(Cl)c(Cl)c1` [Compound 78]: the melting point lay in the range of 178 to 179 °C. Further, the inhibition at 10 µM in data set [1] (setting [3]) was determined as 90.7%.

Regarding `CCn1c(Oc2ccc(F)cc2)nnc1[C@@H](C)NS(=O)(=O)c1ccc(C)c(C)c1` [Compound 126], the melting point fell in the range of 176.5 to 178 °C. In addition, the inhibition at 10 µM in data set [1] (setting [3]) was 91.8%.

Turning to `CCn1c(Oc2ccc3cc[nH]c3c2)nnc1[C@@H](C)NS(=O)(=O)c1ccc(Cl)c(Cl)c1Cl` [Compound 134], the melting point is 108.5 to 114.5 °C. Moreover, the IC50 in data set [1] was at most 35 nM. Also, the inhibition at 10 µM in data set [1] (setting [3]) was 101%.

`CCn1c(Oc2ccc(OC)c(OC)c2)nnc1[C@@H](C)NS(=O)(=O)c1ccc(Cl)c(Cl)c1` [Compound 16]: the melting point is 125 to 127 °C. In data set [1], the IC50 was at most 35 nM. Moreover, the inhibition at 10 µM in data set [1] (setting [3]) came out at 101%.

The molecule `CCn1c(Oc2cccc(N3CCN(C)CC3)c2)nnc1[C@@H](C)NS(=O)(=O)c1ccc2c(Cl)ccc(Cl)c2c1` [Compound 694] displayed a melting point of 189 to 191 °C. Moreover, the IC50 in data set [1] came out at 2.9 nM. Moreover, the inhibition at 10 µM in data set [1] (setting [2]) was 106%.

`CCn1c(Oc2cccc(OCCN(C)C)c2)nnc1[C@@H](C)NS(=O)(=O)c1ccc(Cl)c(Cl)c1` [Compound 106] gave a melting point of 132 to 134 °C. For the same molecule, in data set [1] (setting [3]), the inhibition at 10 µM was 110%.

In turn, `CCn1c(Oc2cccc(N)c2)nnc1[C@@H](C)NS(=O)(=O)c1ccc(Cl)c(Cl)c1` [Compound 82, N-[(R)-1-[5-(3-Amino-phenoxy)-4-ethyl-4H-[1,2,4]triazol-3-yl]-ethyl]-3,4-dichlorobenzenesulfonamide] gave a melting point of 142 to 145 °C. Besides, the inhibition at 10 µM in data set [1] (setting [3]) turned out to be 101%.

Usually inhibition stands for the change of the read-out against control, counted positive when it falls. What is called melting point is the temperature of the solid-liquid transition.
